From patent US4416884A, “Piperazinylbenzoheterocyclic compounds” (Otsuka Pharmaceutical Co., Ltd., priority 1978, dated 1983)
In brackets after ≈: the same amount, converted by molar mass. Counter-ions that a name gives are not always drawn. Like-named read-outs stand apart in the source and are kept apart here.

Key:
Experiment in all cases: antimicrobial activity, serial dilution method on agar plate
Assay type in all cases: cell-based
[1] = tested on: Salmonella typhi 0-901 (NCTC 8393); details: Salmonella enterica
Description: (§1) The antimicrobial activity of the following test compounds on various test organisms listed below was determined by the serial dilution method on agar plate (Heart Infusion agar produced by Difco Co.) (see CHEMOTHERAPY 22, pp. 1126-1128 (1974)), and the minimum inhibitory concentrations (mcg/ml) obtained are shown in Table 1 below.
(§2) A sample of each test organism was prepared so that the population of the organism was 1×10^8 cells/ml (O.D. 660 mμ=0.07 to 0.16) and 1×10^6 cells/ml (which was obtained by diluting the above 1×10^8 cells/ml preparation).

[2] = tested on: Serattia marcescens IFO 12648
Description: as §1, §2

[3] = tested on: Pseudomonas aeruginosa NCTC 10490
Description: as §1, §2

[4] = tested on: Pseudomonas aeruginosa ATCC 10145
Description: as §1, §2

Klebsiella pneumoniae = tested on: Klebsiella pneumoniae
Description: as §1, §2

[5] = tested on: Escherichia Coli NIHJ JC-2 (IFO 12734); details: for MIC: Escherichia coli, read-out: Minimum Inhibitory Concentration
Description: as §1, §2

[6] = tested on: Pseudomonas aeruginosa E-2
Description: as §1, §2

[7] = tested on: Staphylococcus aureus FDA 209 P
Description: as §1, §2

Shigella Sonnei EW 33 = details: read-out: Minimum Inhibitory Concentration
Description: as §1, §2

Proteus rettgeri NIH 96 = details: Providencia rettgeri
Description: as §1, §2

[8] = tested on: Streptococcus pyogenes IID S-23
Description: as §1, §2

[9] = inoculum 1 × 10^8 cells/ml, read-out: Minimum Inhibitory Concentration
[10] = read-out: Minimum Inhibitory Concentration, inoculum 1 × 10^8 cells/ml
[11] = NCTC10490, read-out: Minimum Inhibitory Concentration, inoculum 1 × 10^8 cells/ml
[12] = ATCC10145, read-out: Minimum Inhibitory Concentration, inoculum 1 × 10^8 cells/ml
[13] = E2, read-out: Minimum Inhibitory Concentration, inoculum 1 × 10^8 cells/ml
[14] = FDA209, read-out: Minimum Inhibitory Concentration, inoculum 1 × 10^8 cells/ml
[15] = NIH96, read-out: Minimum Inhibitory Concentration, inoculum 1 × 10^8 cells/ml
[16] = NCTC10490, inoculum 1 × 10^8 cells/ml, read-out: Minimum Inhibitory Concentration
[17] = ATCC10145, inoculum 1 × 10^8 cells/ml, read-out: Minimum Inhibitory Concentration
[18] = E2, inoculum 1 × 10^8 cells/ml, read-out: Minimum Inhibitory Concentration
[19] = FDA209, inoculum 1 × 10^8 cells/ml, read-out: Minimum Inhibitory Concentration
[20] = NIH96, inoculum 1 × 10^8 cells/ml, read-out: Minimum Inhibitory Concentration
[21] = inoculum 1 × 10^6 cells/ml, read-out: Minimum Inhibitory Concentration
[22] = read-out: Minimum Inhibitory Concentration, inoculum 1 × 10^6 cells/ml
[23] = NCTC10490, inoculum 1 × 10^6 cells/ml, read-out: Minimum Inhibitory Concentration
[24] = ATCC10145, inoculum 1 × 10^6 cells/ml, read-out: Minimum Inhibitory Concentration
[25] = IIDS23, inoculum 1 × 10^6 cells/ml, read-out: Minimum Inhibitory Concentration
[26] = IIDS23, inoculum 1 × 10^8 cells/ml, read-out: Minimum Inhibitory Concentration
[27] = E2, inoculum 1 × 10^6 cells/ml, read-out: Minimum Inhibitory Concentration
[28] = FDA209, inoculum 1 × 10^6 cells/ml, read-out: Minimum Inhibitory Concentration
[29] = NIH96, inoculum 1 × 10^6 cells/ml, read-out: Minimum Inhibitory Concentration

Structure (SMILES)	MIC [1, 9] [µg/mL]	MIC [2, 10] [µg/mL]	MIC [3, 11] [µg/mL]	MIC [4, 12] [µg/mL]	MIC (Klebsiella pneumoniae; [10]) [µg/mL]	MIC [5] [µg/mL]	MIC [6, 13] [µg/mL]	MIC [7, 14] [µg/mL]	MIC (Shigella Sonnei EW 33; inoculum 1 × 10^8 cells/ml) [µg/mL]	MIC (Proteus rettgeri NIH 96; [15]) [µg/mL]	MIC [1, 10] [µg/mL]	MIC [2, 9] [µg/mL]	MIC [3, 16] [µg/mL]	MIC [4, 17] [µg/mL]	MIC (Klebsiella pneumoniae; [9]) [µg/mL]	MIC ([5]; inoculum 1 × 10^8 cells/ml) [µg/mL]	MIC [6, 18] [µg/mL]	MIC [7, 19] [µg/mL]	MIC (Proteus rettgeri NIH 96; [20]) [µg/mL]	MIC (Shigella Sonnei EW 33; inoculum 1 × 10^6 cells/ml) [µg/mL]	also measured
O=C(O)c1cn2c3c(c(N4CCNCC4)ccc3c1=O)CC2 [Compound Q, 9-(1-Piperazinyl)-6-oxo-1,2-dihydro-6H--pyrrolo[3,2,1-ij]quinoline-5-carboxylic acid hydrochloride]	6.3	6.3	25	50	12.5	25	50	100	3.1	25											
O=C(O)c1cn2c3c(c(N4CCN(Cc5ccccc5)CC4)ccc3c1=O)CCC2 [Compound R, 8-(4-Benzyl-1-piperazinyl)-6,7-dihydro-1-oxo-1H,5H--benzo[ij]quinolizine-2-carboxylic acid]									1.6 (≈ 3.97 µM)		1.6 (≈ 3.97 µM)	3.1 (≈ 7.68 µM)	12.5 (≈ 31 µM)	25 (≈ 62 µM)	3.1 (≈ 7.68 µM)	1.6 (≈ 3.97 µM)	25 (≈ 62 µM)	12.5 (≈ 31 µM)	1.6 (≈ 3.97 µM)		
Cc1ccc(S(=O)(=O)N2CCN(c3ccc4c(=O)c(C(=O)O)cn5c4c3CCC5)CC2)cc1 [Compound S, 8-(4-p-Toluenesulfonyl-1-piperazinyl)-6,7-dihydro-1-oxo-1H,5H--benzo[ij]quinolizine-2-carboxylic acid]									3.1 (≈ 6.63 µM)		1.6 (≈ 3.42 µM)	6.3 (≈ 13.5 µM)	12.5 (≈ 26.7 µM)	25 (≈ 53.5 µM)	3.1 (≈ 6.63 µM)	1.6 (≈ 3.42 µM)	50 (≈ 107 µM)	6.3 (≈ 13.5 µM)	3.1 (≈ 6.63 µM)		
CC1CCc2c(N3CCNCC3)c(Cl)cc3c(=O)c(C(=O)O)cn1c23 (stereo not drawn) [Compound T, 8-(1-Piperazinyl)-9-chloro-5-methyl-6,7-dihydro-1-oxo-1H,5H--benzo[ij]quinolizine-2-carboxylic acid hydrochloride hydrate]	0.2	1.6	1.6	3.1	0.4	0.4	3.1	1.6	0.2	0.2										0.2	MIC [1, 21]: 0.1 µg/mL; MIC [2, 22]: 1.6 µg/mL; MIC ([3]; NCTC10490, read-out: Minimum Inhibitory Concentration, inoculum 1 × 10^6 cells/ml): 1.6 µg/mL; MIC ([4]; ATCC10145, read-out: Minimum Inhibitory Concentration, inoculum 1 × 10^6 cells/ml): 1.6 µg/mL; MIC ([8]; IIDS23, read-out: Minimum Inhibitory Concentration, inoculum 1 × 10^6 cells/ml): 3.1 µg/mL; MIC ([8]; IIDS23, read-out: Minimum Inhibitory Concentration, inoculum 1 × 10^8 cells/ml): 6.3 µg/mL; MIC (Klebsiella pneumoniae; [22]): 0.4 µg/mL; Minimum Inhibitory Concentration ([5]; inoculum 1 × 10^6 cells/ml): 0.4 µg/mL; MIC ([6]; E2, read-out: Minimum Inhibitory Concentration, inoculum 1 × 10^6 cells/ml): 3.1 µg/mL; MIC ([7]; FDA209, read-out: Minimum Inhibitory Concentration, inoculum 1 × 10^6 cells/ml): 1.6 µg/mL; MIC (Proteus rettgeri NIH 96; NIH96, read-out: Minimum Inhibitory Concentration, inoculum 1 × 10^6 cells/ml): 0.2 µg/mL
CC1CCc2c(N3CCN(C)CC3)c(Cl)cc3c(=O)c(C(=O)O)cn1c23 (stereo not drawn) [Compound U, 8-(4-Methyl-1-piperazinyl)-9-chloro-5-methyl-6,7-dihydro-1-oxo-1H,5H--benzo[ij]-quinolizine-2-carboxylic acid]									0.2 (≈ 0.532 µM)		≤ 0.05	0.4 (≈ 1.06 µM)	1.6 (≈ 4.26 µM)	3.1 (≈ 8.25 µM)	0.2 (≈ 0.532 µM)	0.2 (≈ 0.532 µM)	6.3 (≈ 16.8 µM)	0.8 (≈ 2.13 µM)	0.4 (≈ 1.06 µM)	0.1 (≈ 0.266 µM)	MIC [1, 22]: ≤ 0.05 µg/mL; MIC [2, 21]: 0.4 µg/mL (≈ 1.06 µM); MIC [3, 23]: 1.6 µg/mL (≈ 4.26 µM); MIC [4, 24]: 3.1 µg/mL (≈ 8.25 µM); MIC [8, 25]: 3.1 µg/mL (≈ 8.25 µM); MIC [8, 26]: 3.1 µg/mL (≈ 8.25 µM); MIC (Klebsiella pneumoniae; [21]): 0.2 µg/mL (≈ 0.532 µM); MIC ([5]; inoculum 1 × 10^6 cells/ml): 0.2 µg/mL (≈ 0.532 µM); MIC [6, 27]: 6.3 µg/mL (≈ 16.8 µM); MIC [7, 28]: 0.4 µg/mL (≈ 1.06 µM); MIC (Proteus rettgeri NIH 96; [29]): 0.4 µg/mL (≈ 1.06 µM)
CC1CCc2c(N3CCN(C=O)CC3)c(Cl)cc3c(=O)c(C(=O)O)cn1c23 (stereo not drawn) [Compound V, 8-(4-Formyl-1-piperazinyl)-9-chloro-5-methyl-6,7-dihydro-1-oxo-1H,5H--benzo[ij]-quinolizine-2-carboxylic acid]									0.8 (≈ 2.05 µM)		0.2 (≈ 0.513 µM)	3.1 (≈ 7.95 µM)	3.1 (≈ 7.95 µM)	12.5 (≈ 32.1 µM)	0.8 (≈ 2.05 µM)	0.8 (≈ 2.05 µM)	12.5 (≈ 32.1 µM)	0.2 (≈ 0.513 µM)	0.8 (≈ 2.05 µM)	0.4 (≈ 1.03 µM)	MIC [1, 22]: 0.2 µg/mL (≈ 0.513 µM); MIC [2, 21]: 3.1 µg/mL (≈ 7.95 µM); MIC [3, 23]: 1.6 µg/mL (≈ 4.1 µM); MIC [4, 24]: 12.5 µg/mL (≈ 32.1 µM); MIC [8, 25]: 1.6 µg/mL (≈ 4.1 µM); MIC [8, 26]: 3.1 µg/mL (≈ 7.95 µM); MIC (Klebsiella pneumoniae; [21]): 0.8 µg/mL (≈ 2.05 µM); MIC ([5]; inoculum 1 × 10^6 cells/ml): 0.8 µg/mL (≈ 2.05 µM); MIC [6, 27]: 6.3 µg/mL (≈ 16.2 µM); MIC [7, 28]: 0.2 µg/mL (≈ 0.513 µM); MIC (Proteus rettgeri NIH 96; [29]): 0.8 µg/mL (≈ 2.05 µM)
